Measured values as given in US20090074815A1, “Immunomodulator Compounds as Vaccine Enhancers” (SCICLONE PHARMACEUTICALS, INC., priority 2005, published 2009).
Like-named read-outs stand apart in the source and are kept apart here.

Columns and labels:
[1] = system: IL-4 production by OvA-stimulated splenocytes; test: OvA-stimulated production of IL-4 by splenocytes of OvA-immunized mice
Procedure: The OvA was administered subcutaneously to the crest in a volume of 200 μl. Mice were immunized on day 1 with OvA in complete Freund's adjuvant (CFA; Sigma) and on day 15 with the antigen in incomplete Freund's adjuvant (IFA; Sigma). The immune response was analyzed on day 29. Mice were also immunized with 10 μg/mouse of OvA using Alum as an adjuvant.
Thymuses and spleens from mice of each treatment group were pooled, and then minced with scissors. The minced tissues were suspended in sterile PBS to form cell suspensions, filtered through a double gauze layer and centrifuged. Cells were washed twice with PBS, re-suspended in RPMI-1640 (Sigma) with 2.0 mM of L-glutamine, 50 μM of mercaptoethanol, and 10 μg/ml of gentamycin (complete medium); and cell counts were made. (The splenocyte suspension was washed with a 0.86% solution of NH4Cl to pre-lyse erthrocytes.)
Assessment of Mitogen- and Antigen-Induced Production of Cytokines: Thymic cells (1×10^6/well) in complete medium with 2% FCS were stimulated with ConA (0, 1, and 2 μg/ml). […] Concentrations of IL-2, IL-4, IL-10, IL-12R40 and IFNγ in the supernatants were determined by solid-phase EIA with EIA Expansion Kits, available from BD Biosciences (formerly Pharmingen), in accordance with the manufacturer's instructions.

[2] = system: IL-4 production by ConA-stimulated splenocytes; test: IL-4 production by ConA-stimulated splenocytes (EIA); format: in vivo, mice
[3] = system: IL-2 production by ConA-stimulated thymic cells; test: IL-2 production by ConA-stimulated thymic cells (IL-2-dependent CTLL-2 bioassay); format: in vivo, mice
Text: Considering that significant enhancement of proliferation by SCV-07 might be due to its influence on IL-2 production, IL-2 activity was studied with the IL-2-dependent CTLL-2 line.

lymphocytes = format: in vivo, human
thymic cells = test: ConA-induced proliferation of thymic cells (3H-thymidine uptake); format: in vivo, mice; settings: for Spontaneous proliferation (cpm) M ± SD: thymic cells
Text: Materials and Methods: Eighteen (18) to twenty (20) gram (g) male mice, purchased from the Rappolovo Animal Facility, Russia, were used in the studies described below. C57BL/6 (B6) mice were used to evaluate the effect of SCV-07 in non-immunized mice. CBAxC57BL/6 (F1) mice were used for studies of the effects of SCV-07 on the antigen-specific immune response. Mice were kept under the standard animal facility conditions and were provided with a standard diet and water ad libitum. Each treatment group included 4-5 mice. […] A suspension containing filling agents alone, which corresponded to the maximum amount of filling agents in the doses of SCV-07 administered to experimental animals, was used a control. […] Assessment of Mitogen- and Antigen-Induced Proliferation: […] Antigen-specific proliferation was studied by stimulating thymocytes and splenoctyes in vitro with different concentrations of OvA for 96 h. Twenty (20) to twenty-four (24) hours prior to completion of incubation, 3H-labeled thymidine (5 μCi/ml) was added to the cells. The cells were then transferred to fiberglass filters with a Titertek® semi-automatic cell harvester. Thymidine uptake was measured using a RackBeta 1217 (Wallac) liquid scintillation β-counter. For quantitative analysis of proliferation, the stimulation index (SI) was calculated as a ratio of the intensity of label inclusion in the stimulated cells to that in non-stimulated cells.

[4] = ConA 1 μg/ml, 0.01 μg/kg per os
[5] = ConA 1 μg/ml, 10.0 μg/kg per os
[6] = ConA 1 μg/ml, 100.0 μg/kg per os
[7] = Healthy of group 3 after vaccination
[8] = Patients of group 2 (SCV-07 + vaccine), After vaccination

N[C@H](CCC(=O)N[C@@H](Cc1c[nH]c2ccccc12)C(=O)O)C(=O)O [SCV-07, γ-D-glutamyl-L-tryptophan]
levels of IL-4 production in supernatants of OvA-stimulated splenocytes ([1]; OvA/Alum, all animal groups): below the sensitivity of the test system | levels of IL-4 in supernatants of OvA-stimulated splenocytes ([1]; OvA/FA, all animals, below the sensitivity of the test-system): < 6 pg/mL | IL-4 [2, 4]: 98.7 pg/mL | IL-4 ([2]; ConA 1 μg/ml, 0.1 μg/kg i/p): 62.1 pg/mL | IL-4 ([2]; ConA 1 μg/ml, 0.1 μg/kg per os): 78.9 pg/mL | IL-4 ([2]; ConA 1 μg/ml, 1.0 μg/kg i/p): 52.8 pg/mL | IL-4 ([2]; ConA 1 μg/ml, 1.0 μg/kg per os): 95.8 pg/mL | IL-4 [2, 5]: 53.8 pg/mL | IL-4 [2, 6]: 83.1 pg/mL | IL-4 ([2]; ConA 5 μg/ml, 0.01 μg/kg per os): 284.9 pg/mL | IL-4 ([2]; ConA 5 μg/ml, 0.1 μg/kg i/p): 277.5 pg/mL | IL-4 ([2]; ConA 5 μg/ml, 0.1 μg/kg per os): 229.6 pg/mL | IL-4 ([2]; ConA 5 μg/ml, 1.0 μg/kg i/p): 152.9 pg/mL | IL-4 ([2]; ConA 5 μg/ml, 1.0 μg/kg per os): 260.0 pg/mL | IL-4 ([2]; ConA 5 μg/ml, 10.0 μg/kg per os): 275.0 pg/mL | IL-4 ([2]; ConA 5 μg/ml, 100.0 μg/kg per os): 192.0 pg/mL | IL-4 ([2]; Spontaneous, 0.01 μg/kg per os): 6.1 pg/mL | IL-4 ([2]; Spontaneous, 0.1 μg/kg i/p): 4.2 pg/mL | IL-4 ([2]; Spontaneous, 0.1 μg/kg per os): 0.0 pg/mL | IL-4 ([2]; Spontaneous, 1.0 μg/kg i/p): 0.0 pg/mL | IL-4 ([2]; Spontaneous, 1.0 μg/kg per os): 25.3 pg/mL | IL-4 ([2]; Spontaneous, 10.0 μg/kg per os): 19.4 pg/mL | IL-4 ([2]; Spontaneous, 100.0 μg/kg per os): 27.1 pg/mL | IL-2 production (U/ml), M ± SD [3, 4]: 0.00 ± 0.00 U/ml | IL-2 production (U/ml), M ± SD ([3]; ConA 1 μg/ml, 0.1 μg/kg i/p): 0.25 ± 0.08 U/ml | IL-2 production (U/ml), M ± SD ([3]; ConA 1 μg/ml, 0.1 μg/kg per os): 0.10 ± 0.13 U/ml | IL-2 production (U/ml), M ± SD ([3]; ConA 1 μg/ml, 1.0 μg/kg i/p): 0.92 ± 0.06 U/ml | IL-2 production (U/ml), M ± SD ([3]; ConA 1 μg/ml, 1.0 μg/kg per os): 1.06 ± 0.37 U/ml | IL-2 production (U/ml), M ± SD [3, 5]: 0.25 ± 0.12 U/ml | IL-2 production (U/ml), M ± SD [3, 6]: 0.31 ± 0.15 U/ml | IL-2 production (U/ml), M ± SD ([3]; ConA 2 μg/ml, 0.01 μg/kg per os): 0.44 ± 0.11 U/ml | IL-2 production (U/ml), M ± SD ([3]; ConA 2 μg/ml, 0.1 μg/kg i/p): 1.40 ± 0.38 U/ml | IL-2 production (U/ml), M ± SD ([3]; ConA 2 μg/ml, 0.1 μg/kg per os): 1.00 ± 0.13 U/ml | IL-2 production (U/ml), M ± SD ([3]; ConA 2 μg/ml, 1.0 μg/kg i/p): 1.60 ± 0.15 U/ml | IL-2 production (U/ml), M ± SD ([3]; ConA 2 μg/ml, 1.0 μg/kg per os): 3.31 ± 0.01 U/ml | IL-2 production (U/ml), M ± SD ([3]; ConA 2 μg/ml, 10.0 μg/kg per os): 0.39 ± 0.12 U/ml | IL-2 production (U/ml), M ± SD ([3]; ConA 2 μg/ml, 100.0 μg/kg per os): 1.19 ± 0.30 U/ml | CD3+ (%) (lymphocytes; [7]): 33.10 ± 1.88% | CD4+ (%) (lymphocytes; [7]): 22.86 ± 1.94% | CD4+/CD8+ conv. units (lymphocytes; [7]): 1.203 ± 0.094 conv. units | CD8+ (%) (lymphocytes; [7]): 19.71 ± 1.53% | CD16+ (%) (lymphocytes; [7]): 15.19 ± 1.24% | CD95+ (%) (lymphocytes; [7]): 14.62 ± 1.60% | CD3+ (%) (lymphocytes; [8]): 29.60 ± 2.41% | CD4+ (%) (lymphocytes; [8]): 20.13 ± 1.65% | CD4+/CD8+ conv. units (lymphocytes; [8]): 1.111 ± 0.086 conv. units | CD8+ (%) (lymphocytes; [8]): 18.27 ± 1.01% | CD16+ (%) (lymphocytes; [8]): 13.07 ± 1.18% | CD95+ (%) (lymphocytes; [8]): 12.60 ± 1.18% | minimal dose of SCV-07 given as a crushed tablet which caused significant enhancement of proliferation (thymic cells; crushed tablet per os, ConA 1 μg/ml): 0.1 µg/kg | minimal SCV-07 dose which caused significant increase in proliferation of thymic cells (thymic cells; oral administration, the same as for i/p): 0.1 µg/kg | Spontaneous proliferation (cpm) M ± SD (thymic cells; 0.01 μg/kg Tablet, per os): 308 ± 104 cpm | Spontaneous proliferation (cpm) M ± SD (thymic cells; 0.01 μg/kg per os): 238 ± 64 cpm | Spontaneous proliferation (cpm) M ± SD (thymic cells; 0.1 μg/kg Tablet, per os): 395 ± 136 cpm | Spontaneous proliferation (cpm) M ± SD (thymic cells; 0.1 μg/kg i/p, Table 4): 268 ± 114 cpm | Spontaneous proliferation (cpm) M ± SD (thymic cells; 0.1 μg/kg i/p, Table 5): 251 ± 36 cpm
